{"source": "paper PMC11587516", "about": "(ACS Chemical Neuroscience, 2024)", "format_in_all_cases": "cell-based", "key": {"hBGT1 wt": {"biological_target": "T1, hBGT1 wt (Homo sapiens, UniProt P48065)", "T1 construct": "expressed in transfected cells; host or cells: tsA201 cells (transformed HEK293), transient expression", "T1 sequence (P48065 1-614)": "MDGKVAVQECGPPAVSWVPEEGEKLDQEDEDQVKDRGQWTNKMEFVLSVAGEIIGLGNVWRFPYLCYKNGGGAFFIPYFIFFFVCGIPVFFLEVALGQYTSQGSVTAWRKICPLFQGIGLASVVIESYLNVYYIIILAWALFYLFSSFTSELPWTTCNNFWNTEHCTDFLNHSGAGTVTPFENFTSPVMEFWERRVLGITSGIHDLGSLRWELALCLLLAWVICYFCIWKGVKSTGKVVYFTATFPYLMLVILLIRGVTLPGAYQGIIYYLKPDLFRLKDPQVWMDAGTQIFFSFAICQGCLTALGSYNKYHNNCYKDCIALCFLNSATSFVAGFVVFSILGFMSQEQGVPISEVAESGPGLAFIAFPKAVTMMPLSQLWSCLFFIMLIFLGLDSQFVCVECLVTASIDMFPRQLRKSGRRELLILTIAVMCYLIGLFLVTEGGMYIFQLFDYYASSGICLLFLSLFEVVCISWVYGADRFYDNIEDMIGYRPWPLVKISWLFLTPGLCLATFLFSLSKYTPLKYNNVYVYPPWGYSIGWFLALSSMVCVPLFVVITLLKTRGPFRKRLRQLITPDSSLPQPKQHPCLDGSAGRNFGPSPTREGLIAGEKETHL", "assay": "[3H]GABA uptake assay, wild type hBGT1 transiently expressed in tsA201 cells", "procedure": "(§1) To validate the molecular modeling, particularly the crucial interactions with the Glu52 and Gln299 residues, the activity of compound 9 was tested on the following hBGT1 mutants: E52A, E52Y, Q299L, and the double mutant E52A+Q299L (Figure 5 and Table 1).[14]\n(§2) The CHO cells were placed in 96-well plates (approximately 50,000 cells/well) for about 24 h before the experiment. […] After incubation, cells were washed 3 times with 100 μL/well ice-cold assay buffer, 150 μL/well MicroScint20 (PerkinElmer) was subsequently added before the plate was shaken for at least 1 h. The radioactivity of each well of the plate was measured on a TopCount NXT scintillation counter. […] Data presented are the pooled data of at least three independent experiments with three technical replicates if not stated otherwise in figure legends. Concentration–response curves were fitted by nonlinear regression to the sigmoidal concentration–response model with GraphPad Prism v 9.0.\n(§3) The tsA201 cell line (a transformed HEK293 cell line) has been described previously and was cultured accordingly.[20] The tsA201 cells used for transient expression of hBGT1 mutants were transfected with DNA constructs (8 μg per 10 cm plate) using 40 μL of PolyFect transfection reagent according to the manufacturer’s protocol (Qiagen). […]"}, "hBGT1 E52A": {"biological_target": "T2, hBGT1 E52A (Homo sapiens, UniProt P48065, E52A)", "T2 construct": "host or cells: tsA201 cells (transformed HEK293), transient expression", "T2 sequence (P48065 1-614 E52A)": "T1 sequence (P48065 1-614) with E52A", "assay": "[3H]GABA uptake assay, hBGT1 mutant E52A in tsA201 cells", "procedure": "as §1, §2, §3"}, "[1]": {"system": "normal human astrocytes (NHA)", "assay": "Phase-contrast microscopy of normal human astrocytes in culture medium", "settings": "500 μM in culture medium; 72 h", "procedure": "Taking into account the presence of BGT1 and GAT3 transporters in astrocytes, we studied the effect of compound 9 on astrocyte viability, proliferation, and homeostasis. Normal human astrocytes (NHA) were treated with 1–100 μM compound 9 in a culture medium. The WST-1 assay was used to determine the number of metabolically active cells after 24 and 48 h of incubation. […] In the next step, a higher concentration (500 μM) of the compound and a longer incubation time (72 h) were applied, and the cells were examined by phase-contrast microscopy. […] Considering the results shown in Figure 6, compound 9 was not cytotoxic toward human astrocytes under in vitro culture conditions.\nGibco Human Astrocytes (Thermo Fisher Scientific) were maintained in a humidified 5% CO2 incubator at 37 °C. The cells were cultured in Gibco Astrocyte Medium (DMEM with GlutaMAX, N-2 Supplement, and OneShot Fetal Bovine Serum) supplemented with penicillin G (100 U/mL), neomycin (10 μg/mL), and amphotericin B (0.25 μg/mL)."}}, "note": "Substitutions are numbered along the chain they refer to.", "data": [{"smiles": "NC12CC(C(=O)O)(C1)C2", "note": "[Compound 9]", "values": [{"measurement": "IC50", "setting": "hBGT1 wt", "value": 33.9, "unit": "µM"}, {"measurement": "IC50", "setting": "hBGT1 E52A", "value": 64.2, "unit": "µM"}, {"measurement": "decrease in activity compared with wild type hBGT1", "setting": "hBGT1 E52A; E52A vs wt", "value": "~2", "unit": "fold"}, {"measurement": "astrocyte morphology and confluency", "setting": "[1]", "value": "no changes in astrocyte morphology and confluency"}]}]}
